Laboratory results from patent US20240360157A1, “TYK2 INHIBITORS” (BIOGEN MA INC., priority 2021, published 2024).

Experiments:
Format in all cases: biochemical
[1] = target: human TYK2 catalytic kinase (JH1) domain (Homo sapiens (Human), UniProt P29597); assay: ADP-Glo Kinase Assay, recombinant TYK2 catalytic kinase (JH1) domain; settings: recombinant JH1 domain 2 nM, 10 μM ATP, JAK3-974 peptide, mean, read-out: TYK2 biochem IC50 (nM) Mean
Outline: (§1)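 ADP-Glo luminescence with 50 μM peptide and 100 min reactions: JAK1 4 nM with JAK3-342 peptide; JAK2, JAK3 and TYK2 at 0.2, 0.3 and 2 nM with JAK3-974 peptide. Compounds tested from 10 or 1 μM top, 11 points, 3-fold. IC50 from a 4-parameter logistic fit of normalized activity.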

[2] = target: human JAK1 catalytic kinase (JH1) domain (Homo sapiens (Human), UniProt P23458); assay: ADP-Glo Kinase Assay, recombinant JAK1 catalytic kinase (JH1) domain; settings: recombinant JH1 domain 4 nM, 35 μM ATP, JAK3-342 peptide, mean, read-out: JAK1 biochem IC50 (nM) Mean
Outline: as §1

[3] = target: human JAK2 catalytic kinase (JH1) domain (Homo sapiens (Human), UniProt O60674); assay: ADP-Glo Kinase Assay, recombinant JAK2 catalytic kinase (JH1) domain; settings: recombinant JH1 domain 0.2 nM, 15 μM ATP, JAK3-974 peptide, mean, read-out: JAK2 biochem IC50 (nM) Mean
Outline: as §1

[4] = target: human JAK3 catalytic kinase (JH1) domain (Homo sapiens (Human), UniProt P52333); assay: ADP-Glo Kinase Assay, recombinant JAK3 catalytic kinase (JH1) domain; settings: recombinant JH1 domain 0.3 nM, 4 μM ATP, JAK3-974 peptide, mean, read-out: JAK3 biochem IC50 (nM) Mean
Outline: as §1

Chain of human JAK2 catalytic kinase (JH1) domain (O60674 849-1124): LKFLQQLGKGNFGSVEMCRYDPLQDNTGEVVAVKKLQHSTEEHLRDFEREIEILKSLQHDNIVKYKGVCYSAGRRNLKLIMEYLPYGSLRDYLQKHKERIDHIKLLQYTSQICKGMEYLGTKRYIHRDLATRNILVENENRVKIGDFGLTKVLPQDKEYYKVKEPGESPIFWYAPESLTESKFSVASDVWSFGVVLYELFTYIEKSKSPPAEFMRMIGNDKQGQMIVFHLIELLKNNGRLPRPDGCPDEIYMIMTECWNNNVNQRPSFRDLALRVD
Chain of human TYK2 catalytic kinase (JH1) domain (P29597 897-1176): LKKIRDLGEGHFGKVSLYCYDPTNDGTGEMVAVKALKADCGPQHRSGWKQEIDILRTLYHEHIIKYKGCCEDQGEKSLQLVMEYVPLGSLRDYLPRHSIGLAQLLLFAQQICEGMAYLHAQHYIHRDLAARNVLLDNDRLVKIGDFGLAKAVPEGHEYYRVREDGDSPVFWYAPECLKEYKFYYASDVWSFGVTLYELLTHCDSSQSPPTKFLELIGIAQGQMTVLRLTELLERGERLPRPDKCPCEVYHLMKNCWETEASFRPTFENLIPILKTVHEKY
Chain of human JAK3 catalytic kinase (JH1) domain (P52333 822-1111): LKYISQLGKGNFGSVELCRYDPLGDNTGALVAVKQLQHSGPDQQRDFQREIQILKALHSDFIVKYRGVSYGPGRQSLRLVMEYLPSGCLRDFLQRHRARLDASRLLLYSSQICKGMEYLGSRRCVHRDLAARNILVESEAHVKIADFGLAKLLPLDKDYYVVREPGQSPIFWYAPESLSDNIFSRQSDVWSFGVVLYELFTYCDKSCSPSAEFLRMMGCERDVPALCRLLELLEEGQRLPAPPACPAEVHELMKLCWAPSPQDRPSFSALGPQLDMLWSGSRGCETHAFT
Chain of human JAK1 catalytic kinase (JH1) domain (P23458 875-1153): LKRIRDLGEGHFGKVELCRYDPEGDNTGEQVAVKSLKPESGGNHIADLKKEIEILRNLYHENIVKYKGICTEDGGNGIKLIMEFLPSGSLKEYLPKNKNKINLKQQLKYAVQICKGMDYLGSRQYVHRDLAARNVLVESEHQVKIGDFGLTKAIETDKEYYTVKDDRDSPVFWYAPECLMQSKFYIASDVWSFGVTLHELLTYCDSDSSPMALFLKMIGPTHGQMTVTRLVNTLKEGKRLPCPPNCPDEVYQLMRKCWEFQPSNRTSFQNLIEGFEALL

Row | SMILES | IC50 [1] | IC50 [2] | IC50 [3] | IC50 [4]
1 | O=C(C1CC(F)(F)C1)N1C2CCC1CN(c1ncnn3cc(-c4cnn(C(F)F)c4)cc13)C2 [Example 55, (3,3-difluorocyclobutyl)(3-(6-(1-(difluoromethyl)-1H-pyrazol-4-yl)pyrrolo[2,1-f][1,2,4]triazin-4-yl)-3,8-diazabicyclo[3.2.1]octan-8-yl)methanone] | 290 nM | 2790 nM | 7180 nM | 8580 nM
2 | CC(F)(F)C(=O)N1C2CCC1CN(c1ncnn3cc(-c4cnn(C(F)F)c4)cc13)C2 [Example 56, 1-(3-(6-(1-(difluoromethyl)-1H-pyrazol-4-yl)pyrrolo[2,1-f][1,2,4]triazin-4-yl)-3,8-diazabicyclo[3.2.1]octan-8-yl)-2,2-difluoropropan-1-one] | 233 nM | 1140 nM | 3340 nM | 1360 nM
3 | CCC(=O)N1C2CCC1CN(c1ncnn3cc(-c4cnn(C)c4)cc13)C2 [Example 57, 1-(3-(6-(1-methyl-1H-pyrazol-4-yl)pyrrolo[2,1-f][1,2,4]triazin-4-yl)-3,8-diazabicyclo[3.2.1]octan-8-yl)propan-1-one] | 941 nM | 5140 nM | 10000 nM | 7850 nM
4 | CC(C)C(=O)N1C2CCC1CN(c1ncnn3cc(-c4cnn(C)c4)cc13)C2 [Example 58, 2-methyl-1-(3-(6-(1-methyl-1H-pyrazol-4-yl)pyrrolo[2,1-f][1,2,4]triazin-4-yl)-3,8-diazabicyclo[3.2.1]octan-8-yl)propan-1-one] | 960 nM | 10000 nM | 10000 nM | 10000 nM
5 | Cn1cc(-c2cc3c(N4CC5CCC(C4)N5C(=O)CC(F)(F)F)ncnn3c2)cn1 [Example 59, 3,3,3-trifluoro-1-(3-(6-(1-methyl-1H-pyrazol-4-yl)pyrrolo[2,1-f][1,2,4]triazin-4-yl)-3,8-diazabicyclo[3.2.1]octan-8-yl)propan-1-one] | 652 nM | 3500 nM | 9730 nM | 6940 nM
6 | Cn1cc(-c2cc3c(N4CC5CCC(C4)N5C(=O)CC#N)ncnn3c2)cn1 [Example 62, 3-(3-(6-(1-methyl-1H-pyrazol-4-yl)pyrrolo[2,1-f][1,2,4]triazin-4-yl)-3,8-diazabicyclo[3.2.1]octan-8-yl)-3-oxopropanenitrile] | 351 nM | 860 nM | 8710 nM | 6830 nM
7 | Cn1cc(-c2cc3c(N4CC5CCC(C4)N5C(=O)C4CC4(F)F)ncnn3c2)cn1 (centres unmarked) [Example 63, (2,2-difluorocyclopropyl)(3-(6-(1-methyl-1H-pyrazol-4-yl)pyrrolo[2,1-f][1,2,4]triazin-4-yl)-3,8-diazabicyclo[3.2.1]octan-8-yl)methanone] | 117 nM | 787 nM | 3050 nM | 4530 nM
8 | Cn1cc(-c2cc3c(N4CC5CCC(C4)N5C(=O)C4(F)CC4)ncnn3c2)cn1 [Example 64, (1-fluorocyclopropyl)(3-(6-(1-methyl-1H-pyrazol-4-yl)pyrrolo[2,1-f][1,2,4]triazin-4-yl)-3,8-diazabicyclo[3.2.1]octan-8-yl)methanone] | 289 nM | 1150 nM | 5210 nM | 1110 nM
9 | Cn1cc(-c2cc3c(N4CC5CCC(C4)N5C(=O)C4CCC4)ncnn3c2)cn1 [Example 67, Cyclobutyl(3-(6-(1-methyl-1H-pyrazol-4-yl)pyrrolo[2,1-f][1,2,4]triazin-4-yl)-3,8-diazabicyclo[3.2.1]octan-8-yl)methanone] | 365 nM | 3230 nM | 7460 nM | 4440 nM
10 | Cn1cc(-c2cc3c(N4CC5CCC(C4)N5C(=O)C4(C)CCC4)ncnn3c2)cn1 [Example 68, (3-(6-(1-methyl-1H-pyrazol-4-yl)pyrrolo[2,1-f][1,2,4]triazin-4-yl)-3,8-diazabicyclo[3.2.1]octan-8-yl)(1-methylcyclobutyl)methanone] | 696 nM | 8700 nM | 9180 nM | 8670 nM
11 | Cn1cc(-c2cc3c(N4CC5CCC(C4)N5C(=O)C4CC(F)C4)ncnn3c2)cn1 (centres unmarked) [Example 69, (3-fluorocyclobutyl)(3-(6-(1-methyl-1H-pyrazol-4-yl)pyrrolo[2,1-f][1,2,4]triazin-4-yl)-3,8-diazabicyclo[3.2.1]octan-8-yl)methanone] | 694 nM | 6660 nM | 10000 nM | 9720 nM
12 | Cn1cc(-c2cc3c(N4CC5CCC(C4)N5C(=O)C4CC(F)(F)C4)ncnn3c2)cn1 [Example 70, (3,3-difluorocyclobutyl)(3-(6-(1-methyl-1H-pyrazol-4-yl)pyrrolo[2,1-f][1,2,4]triazin-4-yl)-3,8-diazabicyclo[3.2.1]octan-8-yl)methanone] | 382 nM | 2430 nM | 6360 nM | 5090 nM
13 | Cn1cc(-c2cc3c(N4CC5CCC(C4)N5C(=O)C4COC4)ncnn3c2)cn1 [Example 71, (3-(6-(1-methyl-1H-pyrazol-4-yl)pyrrolo[2,1-f][1,2,4]triazin-4-yl)-3,8-diazabicyclo[3.2.1]octan-8-yl)(oxetan-3-yl)methanone] | 911 nM | 5320 nM | 10000 nM | 10000 nM
14 | Cn1cc(-c2cc3c(N4CC5CCC(C4)N5C(=O)C(C)(F)F)ncnn3c2)cn1 [Example 72, 2,2-difluoro-1-(3-(6-(1-methyl-1H-pyrazol-4-yl)pyrrolo[2,1-f][1,2,4]triazin-4-yl)-3,8-diazabicyclo[3.2.1]octan-8-yl)propan-1-one] | 206 nM | 759 nM | 2340 nM | 703 nM
15 | O=C([C@@H]1C[C@H]1F)N1C2CCC1CN(c1ncnn3cc(-c4cnn(C(F)F)c4)cc13)C2 [Example 76, (3-(6-(1-(difluoromethyl)-1H-pyrazol-4-yl)pyrrolo[2,1-f][1,2,4]triazin-4-yl)-3,8-diazabicyclo[3.2.1]octan-8-yl)((1S,2R)-2-fluorocyclopropyl)methanone] | 23.1 nM | 574 nM | 850 nM | 6270 nM
16 | Cn1cc(-c2cc3c(N4CC5CCC(C4)N5C(=O)[C@@H]4C[C@@H]4F)ncnn3c2)cn1 [Example 80, ((1S,2S)-2-fluorocyclopropyl)(3-(6-(1-methyl-1H-pyrazol-4-yl)pyrrolo[2,1-f][1,2,4]triazin-4-yl)-3,8-diazabicyclo[3.2.1]octan-8-yl)methanone] | 483 nM | 1340 nM | 8020 nM | 2050 nM
17 | Cn1cc(-c2cc3c(N4CC5CCC(C4)N5C(=O)[C@@H]4C[C@H]4F)ncnn3c2)cn1 [Example 82, ((1S,2R)-2-fluorocyclopropyl)(3-(6-(1-methyl-1H-pyrazol-4-yl)pyrrolo[2,1-f][1,2,4]triazin-4-yl)-3,8-diazabicyclo[3.2.1]octan-8-yl)methanone] | 400 nM | 1650 nM | 8860 nM | 3060 nM
18 | Cn1cc(-c2cc3c(N4CC5CCC(C4)N5C(=O)[C@@H]4CC4(F)F)ncnn3c2)cn1 [Example 83, ((S)-2,2-difluorocyclopropyl)(3-(6-(1-methyl-1H-pyrazol-4-yl)pyrrolo[2,1-f][1,2,4]triazin-4-yl)-3,8-diazabicyclo[3.2.1]octan-8-yl)methanone] | 333 nM | 652 nM | 5730 nM | 1640 nM
19 | Cn1cc(-c2cc3c(N4CC5CCC(C4)N5C(=O)[C@H]4CC4(F)F)ncnn3c2)cn1 [Example 84, ((R)-2,2-difluorocyclopropyl)(3-(6-(1-methyl-1H-pyrazol-4-yl)pyrrolo[2,1-f][1,2,4]triazin-4-yl)-3,8-diazabicyclo[3.2.1]octan-8-yl)methanone] | 55 nM | 1800 nM | 1220 nM | 6890 nM
20 | O=C(N1C2CCC1CN(c1ncnn3cc(-c4cnn(C(F)F)c4)cc13)C2)C(F)(F)F [Example 86, 1-(3-(6-(1-(difluoromethyl)-1H-pyrazol-4-yl)pyrrolo[2,1-f][1,2,4]triazin-4-yl)-3,8-diazabicyclo[3.2.1]octan-8-yl)-2,2,2-trifluoroethan-1-one] | 334 nM | 1030 nM | 6080 nM | 5090 nM
21 | Cn1cc(-c2cc3c(N4CC5CCC(C4)N5C(=O)C(F)(F)F)ncnn3c2)cn1 [Example 87, 2,2,2-trifluoro-1-(3-(6-(1-methyl-1H-pyrazol-4-yl)pyrrolo[2,1-f][1,2,4]triazin-4-yl)-3,8-diazabicyclo[3.2.1]octan-8-yl)ethan-1-one] | 266 nM | 1200 nM | 4870 nM | 2550 nM
22 | COc1cc(-c2cc3c(N4CC5CCC(C4)N5C(=O)[C@@H]4C[C@H]4F)ccnn3c2)ccn1 [Example 88, ((1S,2R)-2-fluorocyclopropyl)(3-(6-(2-methoxypyridin-4-yl)pyrrolo[1,2-b]pyridazin-4-yl)-3,8-diazabicyclo[3.2.1]octan-8-yl)methanone] | 1.9 nM | 23 nM | 46 nM | 604 nM
23 | COc1cc(-c2cc3c(N4CC5CCC(C4)N5C(=O)[C@@H]4C[C@H]4F)ncnn3c2)ccn1 [Example 89, ((1S,2R)-2-fluorocyclopropyl)(3-(6-(2-methoxypyridin-4-yl)pyrrolo[2,1-f][1,2,4]triazin-4-yl)-3,8-diazabicyclo[3.2.1]octan-8-yl)methanone] | 28.2 nM | 236 nM | 856 nM | 4240 nM
